# Calls of active or inactive are those of the source.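 The calls were made as follows: active = EC50 of 10 µM or lower; inactive = EC50 above 10 µM.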
# Tested on: DHL10 Bax/Bak-deficient cells, cytotoxicity, MTS absorbance
# Test: DHL10 Bax/Bak-null cell killing – MTS absorbance, EC50, counter-screen for MCL1-BIM inhibitor project, late-stage follow-up (AID 493058)
row,Compound,EC50
1,COc1ccc(Cc2nnc(NC(=O)c3cc(-c4ccc(C)o4)nc4ccccc34)s2)cc1OC,25 µM (inactive)
2,Cc1ccc(-c2cc(C(=O)N3CC(C)CC(C)C3)c3ccccc3n2)o1 (stereo not given),> 25 µM (inactive)
3,CN(C)C(=O)c1ccc(NC(=O)c2cc(-c3ccco3)nc3ccccc23)cc1,> 25 µM (inactive)
4,COc1ccc(Cc2nnc(NC(=O)CCc3ccco3)s2)cc1OC,> 25 µM (inactive)
5,O=C(Nc1ccc(F)cc1F)c1cc(-c2ccco2)nc2ccccc12,> 25 µM (inactive)
6,COc1ccccc1CC(=O)Nc1nnc(Cc2ccc(OC)c(OC)c2)s1,> 25 µM (inactive)
7,COc1ccc(Cc2nnc(NC(=O)c3cc(-c4ccco4)nc4ccc(Br)cc34)s2)cc1OC,20 µM (inactive)
8,CCN(CC)C(=O)COc1ccc2c(-c3ccccc3)cc(=O)oc2c1,> 25 µM (inactive)
9,COc1ccccc1NC(=O)c1cc(-c2ccc(C)o2)nc2ccccc12,> 25 µM (inactive)
10,COc1ccc(Cc2nnc(NC(=O)Cc3cccnc3)s2)cc1OC,> 25 µM (inactive)
11,Cc1ccc(-c2cc(C(=O)N3CCN(c4ncccn4)CC3)c3cc(Br)ccc3n2)o1,> 25 µM (inactive)
12,COc1ccc(Cc2nnc(NC(=O)Cc3cccs3)s2)cc1OC,> 25 µM (inactive)
13,CN(C)C(CNC(=O)c1cc(-c2ccco2)nc2ccccc12)c1ccccc1 (stereo not given),> 25 µM (inactive)
14,NS(=O)(=O)c1ccc(CCNC(=O)c2cc(-c3ccco3)nc3ccccc23)cc1,> 25 µM (inactive)
15,Cc1ccc(-c2cc(C(=O)NCCCn3ccnc3)c3cc(Br)ccc3n2)o1,> 25 µM (inactive)
16,COc1ccc(CC(=O)Nc2nnc(Cc3ccc(OC)c(OC)c3)s2)cc1,> 25 µM (inactive)
17,O=C(NCCCN1CCOCC1)c1cc(-c2ccco2)nc2ccccc12,> 25 µM (inactive)
18,COc1ccc(Cc2nnc(NC(=O)Cc3cccc(Br)c3)s2)cc1OC,> 25 µM (inactive)
19,Cc1ccc(-c2cc(C(=O)Nc3ccccn3)c3ccccc3n2)o1,> 25 µM (inactive)
20,Cc1cccc(NC(=O)c2cc(-c3ccc(C)o3)nc3ccccc23)n1,> 25 µM (inactive)
21,O=C(Nc1cccnc1)c1cc(-c2ccco2)nc2ccc(Br)cc12,> 25 µM (inactive)
22,COc1cccc(NC(=O)CN(C)C(=O)c2cc(-c3ccc(C)o3)nc3ccccc23)c1,> 25 µM (inactive)
23,COc1ccc(-c2cc(=O)oc3cc(OCC(=O)N4CC4)ccc23)cc1,> 25 µM (inactive)
24,Cc1ccc(-c2cc(C(=O)NCCN3CCOCC3)c3ccccc3n2)o1,> 25 µM (inactive)

row,Compound,EC50
1,Cc1ccc(-c2cc(C(=O)Nc3ccccc3C)c3ccccc3n2)o1,> 25 µM (inactive)
2,CCCCCCNC(=O)c1cc(-c2ccco2)nc2ccccc12,> 25 µM (inactive)
3,COCCCN(C(=O)c1cc(-c2ccco2)nc2ccccc12)c1c(N)n(Cc2ccccc2)c(=O)[nH]c1=O,> 25 µM (inactive)
4,COc1ccc(Cc2nnc(NC(=O)Cc3cc(F)cc(F)c3)s2)cc1OC,> 25 µM (inactive)
5,COc1ccc(Cc2nnc(NC(=O)Cc3c[nH]c4ccccc34)s2)cc1OC,> 25 µM (inactive)
6,CN(CC(=O)Nc1cccc(F)c1)C(=O)c1cc(-c2ccco2)nc2ccccc12,> 25 µM (inactive)
7,COc1ccc(Cc2nnc(NC(=O)Cc3ccncc3)s2)cc1OC,> 25 µM (inactive)
8,CCOC(=O)c1cc(-c2ccco2)nc2c1c(C)nn2-c1cccc(Cl)c1,> 25 µM (inactive)
9,Cc1cccc(NC(=O)c2cc(-c3ccco3)nc3ccccc23)n1,> 25 µM (inactive)
10,COc1ccc(NC(=O)c2cc(-c3ccc(C)o3)nc3ccccc23)cc1,> 25 µM (inactive)
11,Cc1ccc(-c2cc(C(=O)Nc3ccccc3C(N)=O)c3ccccc3n2)o1,> 25 µM (inactive)
12,Cc1ccc(-c2cc(C(=O)N(C)CC(=O)Nc3ccccc3Br)c3ccccc3n2)o1,> 25 µM (inactive)
13,O=C(NC1CC1)c1cc(-c2ccco2)nc2ccccc12,> 25 µM (inactive)
14,COc1ccc(Cc2nnc(NC(=O)C(F)c3ccccc3)s2)cc1OC (stereo not given),> 25 µM (inactive)
15,O=C(Nc1nc2ccccc2s1)c1cc(-c2ccco2)nc2ccccc12,> 25 µM (inactive)
16,COc1cccc(NC(=O)c2cc(-c3ccco3)nc3ccccc23)c1,> 25 µM (inactive)
17,O=C(NC(=S)Nc1cccc(S(=O)(=O)NC2=NCCC2)c1)c1cc(-c2ccco2)nc2ccccc12,> 25 µM (inactive)
18,Cc1ccc(NC(=O)c2cc(-c3ccco3)nc3ccccc23)cc1S(=O)(=O)N1CCOCC1,> 25 µM (inactive)
19,CCOc1cc(N2CCOCC2)c(OCC)cc1NC(=O)c1cc(-c2ccco2)nc2ccccc12,> 25 µM (inactive)
20,COc1ccc(Cc2nnc(NC(=O)Cc3ccc4ccccc4c3)s2)cc1OC,> 25 µM (inactive)
21,COc1cccc(CC(=O)Nc2nnc(Cc3ccc(OC)c(OC)c3)s2)c1,> 25 µM (inactive)
22,O=C(Cc1cccs1)Nc1nnc(Cc2ccccc2)s1,> 25 µM (inactive)
23,Cc1nnc(NC(=O)c2cc(-c3ccco3)nc3ccccc23)s1,> 25 µM (inactive)
24,O=C(Nc1cccc(S(=O)(=O)NC2=NCCC2)c1)c1cc(-c2ccco2)nc2ccccc12,> 25 µM (inactive)

row,Compound,EC50
1,Cc1ccc(NC(=O)c2cc(-c3ccc(C)o3)nc3ccccc23)cc1,> 25 µM (inactive)
2,CN(CCOc1ccc(Cl)cc1)C(=O)c1cc(-c2ccco2)nc2ccccc12,> 25 µM (inactive)
3,Cc1csc(NC(=O)c2cc(-c3ccco3)nc3ccccc23)n1,> 25 µM (inactive)
4,COc1ccc(Cc2nnc(NC(=O)Cc3ccc(Oc4ccccc4)cc3)s2)cc1OC,> 25 µM (inactive)
5,COC(=O)C1CCN(C(=O)c2cc(-c3ccco3)nc3ccccc23)CC1,> 25 µM (inactive)
6,CC1CCCN(C(=O)c2cc(-c3ccco3)nc3ccccc23)C1 (stereo not given),> 25 µM (inactive)
7,CCCn1c(N)c(N(CCOC)C(=O)c2cc(-c3ccco3)nc3ccccc23)c(=O)[nH]c1=O,> 25 µM (inactive)
8,O=C(NC1CCC(O)CC1)c1cc(-c2ccco2)nc2ccccc12 (stereo not given),> 25 µM (inactive)
9,COc1ccc(Cc2nnc(NC(=O)Cc3csc4ccccc34)s2)cc1OC,> 25 µM (inactive)
10,O=C(Nc1cccc(S(=O)(=O)NC2=NCCCCC2)c1)c1cc(-c2ccco2)nc2ccccc12,> 25 µM (inactive)
11,COc1ccc(Cc2nnc(NC(=O)Cc3ccc(N(C)C)cc3)s2)cc1OC,> 25 µM (inactive)
12,O=C(Nc1ccccc1F)c1cc(-c2ccco2)nc2ccccc12,> 25 µM (inactive)
13,CCOC(=O)c1cc(-c2ccco2)nc2c1c(C)nn2-c1ccccc1,> 25 µM (inactive)
14,CCCC(=O)Nc1nnc(Cc2ccccc2)s1,> 25 µM (inactive)
15,CCCCN(C(=O)c1cc(-c2ccco2)nc2ccccc12)c1c(N)n(CCC)c(=O)[nH]c1=O,> 25 µM (inactive)
16,CN(CC(=O)Nc1ccc(F)cc1)C(=O)c1cc(-c2ccco2)nc2ccccc12,> 25 µM (inactive)
17,CCN(CC)CCNC(=O)c1cc(-c2ccco2)nc2ccccc12,> 25 µM (inactive)
18,COc1ccc(Cc2nnc(NC(=O)Cc3ccccn3)s2)cc1OC,> 25 µM (inactive)
19,CCc1nnc(NC(=O)c2cc(-c3ccco3)nc3ccccc23)s1,> 25 µM (inactive)
20,CCOC(=O)C1CCCN(C(=O)c2cc(-c3ccco3)nc3ccccc23)C1 (stereo not given),> 25 µM (inactive)
21,COc1ccc(Cc2nnc(NC(=O)CCc3cccs3)s2)cc1OC,> 25 µM (inactive)
22,COc1ccc(Cc2nnc(NC(=O)Cc3cccs3)s2)cc1,> 25 µM (inactive)
23,CCC(=O)Nc1nnc(Cc2ccccc2)s1,> 25 µM (inactive)
24,COc1ccc(CCNC(=O)c2cc(-c3ccco3)nc3ccccc23)cc1,> 25 µM (inactive)

row,Compound,EC50
1,Cc1ccc(-c2cc(C(=O)Nc3nccs3)c3ccccc3n2)o1,> 25 µM (inactive)
2,COc1ccc(Cc2nnc(CC(=O)Nc3cccs3)s2)cc1,> 25 µM (inactive)
3,COc1ccc(Cc2nnc(NC(=O)c3cc(-c4ccco4)nc4ccccc34)s2)cc1OC,> 25 µM (inactive)
4,CCCCn1c(N)c(N(CCOC)C(=O)c2cc(-c3ccco3)nc3ccccc23)c(=O)[nH]c1=O,> 25 µM (inactive)
5,Cc1cccc(NC(=O)c2cc(-c3ccco3)nc3ccc(Br)cc23)n1,10 µM
6,COc1ccc(NC(=O)c2cc(-c3ccco3)nc3ccccc23)cc1S(=O)(=O)N1CCOCC1,> 25 µM (inactive)
7,COc1ccc(Cc2nnc(NC(=O)C3(c4ccccc4)CC3)s2)cc1OC,> 25 µM (inactive)
8,CCN(CC)C(=O)COc1ccc2c(-c3ccc(OC)cc3)cc(=O)oc2c1C,> 25 µM (inactive)
9,CCCCn1c(N)c(N(CC(C)C)C(=O)c2cc(-c3ccco3)nc3ccccc23)c(=O)[nH]c1=O,> 25 µM (inactive)
10,O=C(c1cc(-c2ccco2)nc2ccccc12)N1CCN(c2ccc(F)cc2)CC1,> 25 µM (inactive)
11,CCc1nnc(NC(=O)c2cc(-c3ccc(C)o3)nc3ccccc23)s1,> 25 µM (inactive)
12,Cc1ccc2nc(NC(=O)c3cc(-c4ccco4)nc4ccccc34)sc2c1,> 25 µM (inactive)
13,Cc1ccnc(NC(=O)c2cc(-c3ccco3)nc3ccc(Br)cc23)c1,> 25 µM (inactive)
14,COc1ccc(Cc2nnc(NC(=O)Cc3ccccc3C)s2)cc1OC,> 25 µM (inactive)
15,COc1ccc(NC(=O)c2cc(-c3ccc(C)o3)nc3ccccc23)cc1OC,> 25 µM (inactive)
16,COc1ccc(Cc2nnc(NC(=O)Cc3ccsc3)s2)cc1OC,> 25 µM (inactive)
17,COc1ccc(Cc2nnc(NC(=O)C(=O)c3ccco3)s2)cc1OC,> 25 µM (inactive)
18,COc1ccc(NC(=O)CN(C)C(=O)c2cc(-c3ccc(C)o3)nc3ccccc23)cc1,> 25 µM (inactive)
19,COc1cccc(NC(=O)c2cc(-c3ccc(C)o3)nc3ccccc23)c1,> 25 µM (inactive)
20,O=C(Nc1nccs1)c1cc(-c2ccco2)nc2ccccc12,> 25 µM (inactive)
21,COc1ccc(NC(=O)c2cc(-c3ccc(C)o3)nc3ccccc23)c(OC)c1,> 25 µM (inactive)
22,O=C(Nc1cccc(F)c1)c1cc(-c2ccco2)nc2ccccc12,> 25 µM (inactive)
23,CCN1CCN(C(=O)c2cc(-c3ccco3)nc3ccccc23)CC1,> 25 µM (inactive)
